Patent publication US10669242B2 (priority 2016, dated 2020)
pIC50: −log10 of the molar value.

Molecular target: T1, recombinant glucosyltransferase domain of C. difficile Toxin B/TcdB (Clostridioides difficile, UniProt P18177)
T1 construct: 6-His (C); purchased R&D Systems 6246-GT
Test: biochemical

T1 sequence (P18177 1-543): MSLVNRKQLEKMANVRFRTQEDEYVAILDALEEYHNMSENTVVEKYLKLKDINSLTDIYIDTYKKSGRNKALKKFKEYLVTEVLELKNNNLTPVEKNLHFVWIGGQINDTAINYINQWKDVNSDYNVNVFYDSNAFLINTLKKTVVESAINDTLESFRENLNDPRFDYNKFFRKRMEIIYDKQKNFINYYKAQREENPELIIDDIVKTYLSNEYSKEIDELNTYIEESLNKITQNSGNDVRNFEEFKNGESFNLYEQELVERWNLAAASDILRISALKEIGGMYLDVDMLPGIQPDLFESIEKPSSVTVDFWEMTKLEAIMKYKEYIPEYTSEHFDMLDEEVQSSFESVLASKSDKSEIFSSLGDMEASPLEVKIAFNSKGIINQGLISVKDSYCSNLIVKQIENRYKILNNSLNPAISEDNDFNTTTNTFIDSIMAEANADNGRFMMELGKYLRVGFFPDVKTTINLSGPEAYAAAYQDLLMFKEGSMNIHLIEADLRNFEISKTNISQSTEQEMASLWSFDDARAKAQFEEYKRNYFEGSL

SMILES	pIC50
Cc1cnc(NC(=O)[C@H]2CC[C@H](CN3C(=O)c4ccc(Cl)cc4NC(=O)[C@H]3Cc3ccccn3)CC2)cn1 [Example 4cf, (1R,4r)-4-(((R)-8-chloro-2,5-dioxo-3-(pyridin-2-ylmethyl)-2,3-dihydro-1H-benzo[e][1,4]diazepin-4(5H)-yl)methyl)-N-(5-methylpyrazin-2-yl)cyclohexanecarboxamide]	> 7.00
C[C@@H]1C(=O)Nc2cc(Cl)ccc2C(=O)N1Cc1ccc(C(=O)Nc2ccc(-c3ccccc3)cn2)cc1 [Example 4bc, (R)-4-((8-chloro-3-methyl-2,5-dioxo-2,3-dihydro-1H-benzo[e][1,4]diazepin-4(5H)-yl)methyl)-N-(5-phenylpyridin-2-yl)benzamide]	6.00 to 7.00
COc1ccc(NC(=O)c2ccc(CN3C(=O)c4ccc(Cl)cc4NC(=O)[C@H]3Cc3ccccn3)cc2)nn1 [Example 4bm, (R)-4-((8-chloro-2,5-dioxo-3-(pyridin-2-ylmethyl)-2,3-dihydro-1H-benzo[e][1,4]diazepin-4(5H)-yl)methyl)-N-(6-methoxypyridazin-3-yl)benzamide]	> 7.00
O=C(O)c1ccc(CN2C(=O)c3ccc(Cl)cc3NC(=O)[C@H]2Cc2ccccn2)cc1-c1ccccc1 [Example 8e, (R)-5-((8-chloro-2,5-dioxo-3-(pyridin-2-ylmethyl)-2,3-dihydro-1H-benzo[e][1,4]diazepin-4(5H)-yl)methyl)-[1,1′-biphenyl]-2-carboxylic acid]	6.00 to 7.00
Cc1cc(CN2C(=O)c3ccc(Cl)cc3NC(=O)[C@H]2Cc2ccccn2)ccc1C(=O)O [Example 7b, (R)-4-((8-chloro-2,5-dioxo-3-(pyridin-2-ylmethyl)-2,3-dihydro-1H-benzo[e][1,4]diazepin-4(5H)-yl)methyl)-2-methylbenzoic acid]	6.00 to 7.00
CS(=O)(=O)NC(=O)c1ccc(CN2C(=O)c3ccc(Cl)cc3NC(=O)[C@H]2Cc2cccnc2)cc1 [Example 15b, (R)-4-((8-chloro-2,5-dioxo-3-(pyridin-3-ylmethyl)-2,3-dihydro-1H-benzo[e][1,4]diazepin-4(5H)-yl)methyl)-N-(methylsulfonyl)benzamide]	5.00 to 6.00
O=C(Nc1ccc(Cl)cn1)c1ccc(CN2C(=O)c3ccc(Cl)cc3NC(=O)[C@H]2Cc2cccnc2)cc1 [Example 5d, (R)-4-((8-chloro-2,5-dioxo-3-(pyridin-3-ylmethyl)-2,3-dihydro-1H-benzo[e][1,4]diazepin-4(5H)-yl)methyl)-N-(5-chloropyridin-2-yl)benzamide]	> 7.00
O=C1Nc2cc(Cl)ccc2C(=O)N(Cc2ccc(C(=O)N3CCc4cccnc43)c(Cl)c2)[C@@H]1Cc1ccccn1 [Example 4cd, (R)-8-chloro-4-(3-chloro-4-(2,3-dihydro-1H-pyrrolo[2,3-b]pyridine-1-carbonyl)benzyl)-3-(pyridin-2-ylmethyl)-3,4-dihydro-1H-benzo[e][1,4]diazepine-2,5-dione]	> 7.00
CC(=O)Nc1cccc(-c2cc(CN3C(=O)c4ccc(Cl)cc4NC(=O)[C@H]3Cc3ccccn3)ccc2C(=O)O)c1 [Example 8q, (R)-3′-acetamido-5-((8-chloro-2,5-dioxo-3-(pyridin-2-ylmethyl)-2,3-dihydro-1H-benzo[e][1,4]diazepin-4(5H)-yl)methyl)-[1,1′-biphenyl]-2-carboxylic acid]	6.00 to 7.00
O=C(O)c1ccc(CN2C(=O)c3ccc(Cl)cc3NC(=O)[C@H]2Cc2ccccn2)cc1NC(=O)C1CCCCC1 [Example 22c]	6.00 to 7.00
O=C(Nc1cccc(CN2C(=O)c3ccc(Cl)cc3NC(=O)[C@H]2Cc2ccccn2)c1)c1ccccn1 [Example 28a, (R)—N-(3-((8-Chloro-2,5-dioxo-3-(pyridin-2-ylmethyl)-2,3-dihydro-1H-benzo[e][1,4]diazepin-4(5H)-yl)methyl)phenyl)picolinamide]	> 7.00
COc1ccc(NC(=O)c2ccc(CN3C(=O)c4ccc(Cl)cc4NC(=O)[C@H]3Cc3cccnc3)cc2)nc1 [Example 5g, (R)-4-((8-chloro-2,5-dioxo-3-(pyridin-3-ylmethyl)-2,3-dihydro-1H-benzo[e][1,4]diazepin-4(5H)-yl)methyl)-N-(5-methoxypyridin-2-yl)benzamide]	> 7.00
Cc1cccc(C[C@@H]2C(=O)Nc3cc(Cl)ccc3C(=O)N2Cc2ccc(C(=O)O)cc2)c1 [Example 3m]	5.00 to 6.00
O=C1Nc2cc(Cl)ccc2C(=O)N(C[C@H]2CC[C@H](C(=O)Nc3ccc(F)cn3)CC2)[C@@H]1Cc1ccccn1 [Example 4ca, (1R,4r)-4-(((R)-8-chloro-2,5-dioxo-3-(pyridin-2-ylmethyl)-2,3-dihydro-1H-benzo[e][1,4]diazepin-4(5H)-yl)methyl)-N-(5-fluoropyridin-2-yl)cyclohexanecarboxamide]	> 7.00
COc1cnc(NC(=O)c2ccc(CN3C(=O)c4ccc(Cl)cc4NC(=O)[C@H]3Cc3cnccn3)cc2)nc1 [Example 5y, 4-((8-chloro-2,5-dioxo-3-(pyrazin-2-ylmethyl)-2,3-dihydro-1H-benzo[e][1,4]diazepin-4(5H)-yl)methyl)-N-(5-methoxypyrimidin-2-yl)benzamide]	> 7.00
O=C(O)c1ccc(CN2C(=O)c3ccc(Cl)cc3NC(=O)[C@H]2Cc2ccc(O)cc2)cc1 [Example 2d]	5.00 to 6.00
Cn1cnc(C(=O)Nc2ccc(CN3C(=O)c4ccc(Cl)cc4NC(=O)[C@H]3Cc3ccccn3)cc2)c1 [Example 27k]	> 7.00
Cc1ccc(NC(=O)c2ccc(CN3C(=O)c4ccc(N)cc4NC(=O)[C@H]3C)cc2)nc1 [Example 16a, (R)-4-((8-Amino-3-methyl-2,5-dioxo-2,3-dihydro-1H-benzo[e][1,4]diazepin-4(5H)-yl)methyl)-N-(5-methylpyridin-2-yl)benzamide]	5.00 to 6.00
O=C(O)c1ccc(CN2C(=O)c3ccc(Cl)cc3NC(=O)[C@H]2Cc2ccccn2)cc1-c1ccc2c(c1)OCO2 [Example 8c, (R)-2-(benzo[d][1,3]dioxol-5-yl)-4-((8-chloro-2,5-dioxo-3-(pyridin-2-ylmethyl)-2,3-dihydro-1H-benzo[e][1,4]diazepin-4(5H)-yl)methyl)benzoic acid]	6.00 to 7.00
O=C1Nc2cc(Cl)ccc2C(=O)N(Cc2ccc(CO)cc2)[C@@H]1Cc1ccccn1 [Example 41a, 8-Chloro-4-(4-(hydroxymethyl)benzyl)-3-(pyridin-2-ylmethyl)-3,4-dihydro-1H-benzo[e][1,4]diazepine-2,5-dione]	5.00 to 6.00
Cc1ccnc(C(=O)c2ccc(CN3C(=O)c4ccc(Cl)cc4NC(=O)[C@H]3Cc3ccccn3)cc2)c1 [Example 11d, (R)-8-chloro-4-(4-(4-methylpicolinoyl)benzyl)-3-(pyridin-2-ylmethyl)-3,4-dihydro-1H-benzo[e][1,4]diazepine-2,5-dione]	> 7.00
Cc1ccc(NC(=O)[C@H]2CC[C@H](CN3C(=O)c4ccc(Cl)cc4NC(=O)[C@H]3Cc3ccccn3)CC2)nc1 [Example 4bx, (1R,4r)-4-(((R)-8-chloro-2,5-dioxo-3-(pyridin-2-ylmethyl)-2,3-dihydro-1H-benzo[e][1,4]diazepin-4(5H)-yl)methyl)-N-(5-methylpyridin-2-yl)cyclohexanecarboxamide]	> 7.00
Cc1cnc(NC(=O)c2ccc(CN3C(=O)c4ccc(Cl)cc4NC(=O)[C@H]3Cc3ccccn3)cc2Cl)s1 [Example 4cc, (R)-2-chloro-4-((8-chloro-2,5-dioxo-3-(pyridin-2-ylmethyl)-2,3-dihydro-1H-benzo[e][1,4]diazepin-4(5H)-yl)methyl)-N-(5-methylthiazol-2-yl)benzamide]	> 7.00
